We go through 19 molecules from ChEMBL document CHEMBL5137069, “Discovery of Potent and Orally Bioavailable Pyridine N-Oxide-Based Factor XIa Inhibitors through Exploiting Nonclassical Interactions” (J Med Chem, 2022).

In brackets after ≈: the same amount, converted by molar mass.

The nature of series [1]: Stability in human liver microsomes assessed as half-life. Type of series: ADME, Microsome. A general note: Liver microsomes are vesicles of endoplasmic reticulum, rich in cytochrome P450 enzymes.
Series [2] can be described thus: Stability in rat liver microsomes assessed as half-life. Type of series: ADME, Microsome.
A short description of series [3]: Oral bioavailability in Sprague-Dawley rat at 10 mg/kg administered as 20% HPbCD formulation. Type of series: ADME, organism-based. To be noted: in vivo.
Series [4] in a line: Oral Bioavailability in Sprague-Dawley rat at 10 mg/kg. Type of series: ADME, organism-based. The settings on record: in vivo.
The nature of series [5]: Half-life in Sprague-Dawley rat at 10 mg/kg, po and 2 mg/kg, iv. Type of series: ADME, organism-based. To be noted: in vivo.
The nature of series [6]: Hal-life in Beagle dog at 5 mg/kg, po and 1 mg/kg, iv. Type of series: ADME, organism-based, Canis lupus familiaris. The settings on record: in vivo.
A short description of series [7]: Half-life in Cynomolgus monkey at 5 mg/kg, po and 1 mg/kg, iv. Type of series: ADME, organism-based, Macaca fascicularis. The settings on record: in vivo.
Series [8] can be described thus: Volume of distribution at steady state in Sprague-Dawley rat at 10 mg/kg, po and 2 mg/kg, iv. Type of series: ADME, organism-based. The settings on record: in vivo.
Series [9] can be described thus: Volume of distribution at steady state in Beagle dog at 5 mg/kg, po and 1 mg/kg, iv. Type of series: ADME, organism-based, Canis lupus familiaris. The settings on record: in vivo.
Series [10] is described as follows: Volume of distribution at steady state in Cynomolgus monkey at 5 mg/kg, po and 1 mg/kg, iv. In kind it is ADME, organism-based, Macaca fascicularis. To be noted: in vivo.
Series [11] can be described thus: Oral bioavailability in Beagle dog at 5 mg/kg. In kind it is ADME, organism-based, Canis lupus familiaris. To be noted: in vivo.
A short description of series [12]: Oral bioavailability in Cynomolgus monkey at 5 mg/kg. Type of series: ADME, organism-based, Macaca fascicularis. The settings on record: in vivo.
Series [13] is described as follows: AUC in Sprague-Dawley rat at 2 mg/kg, iv. Type of series: ADME, organism-based. Further details: dose 2 mg/kg, route iv. The settings on record: in vivo.
Series [14] is described as follows: AUC in Beagle dog at 1 mg/kg, iv. In kind it is ADME, organism-based, Canis lupus familiaris. Further details: dose 1 mg/kg, route iv. To be noted: in vivo.
Series [15] can be described thus: AUC in Cynomolgus monkey at 1 mg/kg, iv. Further details: dose 1 mg/kg, route iv. The settings on record: in vivo. Type of series: ADME, organism-based, Macaca fascicularis.
Series [16] can be described thus: AUC in Sprague-Dawley rat at 10 mg/kg, po. Type of series: ADME, organism-based. Also noted: dose 10 mg/kg, route po. To be noted: in vivo.
Series [17] in a line: AUC in Beagle dog at 5 mg/kg, po. Type of series: ADME, organism-based, Canis lupus familiaris. Also noted: dose 5 mg/kg, route po. To be noted: in vivo.
Series [18] is described as follows: AUC in Cynomolgus monkey at 5 mg/kg, po. Type of series: ADME, organism-based, Macaca fascicularis. Further details: dose 5 mg/kg, route po. To be noted: in vivo.
Series [19] can be described thus: Clearance in Sprague-Dawley rat assessed as liver blood flow at 10 mg/kg, po and 2 mg/kg, iv. The settings on record: in vivo. In kind it is ADME, organism-based.
A short description of series [20]: Clearance in Beagle dog assessed as liver blood flow at 5 mg/kg, po and 1 mg/kg, iv. Type of series: ADME, organism-based, Canis lupus familiaris. To be noted: in vivo.
A short description of series [21]: Clearance in Cynomolgus monkey assessed as liver blood flow at 5 mg/kg, po and 1 mg/kg, iv. Type of series: ADME, organism-based, Macaca fascicularis. The settings on record: in vivo.
Series [22] can be described thus: Equilibrium solubility of compound at pH 1.2 by HPLC analysis. Type of series: physicochemical. The settings on record: buffer.
Series [23] can be described thus: Equilibrium solubility of compound at pH 6.8 by HPLC analysis. Type of series: physicochemical. To be noted: buffer.
Series [24] is described as follows: Drug concentration in plasma of anesthetized New Zealand White rabbit model of AV shunt-induced thrombosis at […], administered as iv bolus dose and subsequently followed by 0.8 mg/kg/hr as iv infusion from 20 min prior to 40 min after establishment of AV shunt by LC-MS/MS analysis. In kind it is ADME, organism-based, Oryctolagus cuniculus. The settings on record: time 60 min.

A short description of series [25]: Drug concentration in plasma of anesthetized New Zealand White rabbit model of AV shunt-induced thrombosis at 8.5 mg/kg, administered as iv bolus dose and subsequently followed by 10 mg/kg/hr as iv infusion from 20 min prior to 40 min after establishment of AV shunt by LC-MS/MS analysis. Type of series: ADME, organism-based, Oryctolagus cuniculus. The settings on record: time 60 min.

The nature of series [26]: Oral bioavailability in Sprague-Dawley rat at 10 mg/kg administered as PEG-400/water/EtOH (7:2:1) formulation. Type of series: ADME, organism-based. To be noted: in vivo.

As usually defined, the half-life is the time needed for the level to fall by half in the phase considered. For the molecule `[O-][n+]1cc(-c2c(-n3cnnn3)ccc(Cl)c2F)ccc1C(CC1CC1)n1cc(-c2cncs2)cn1` (racemic), the half-life in [1] worked out at 0.05 h; in series [2], 0.117 h.

Turning to `Cn1nncc1-c1cnn([C@H](CC2CC2)c2ccc(-c3c(-n4cnnn4)ccc(Cl)c3F)c[n+]2[O-])c1`, the half-life in series [1] and in series [2] was more than 3 h in each case.

For `Cc1ncsc1-c1cnn(C(CC2CC2)c2ccc(-c3c(-n4cnnn4)ccc(Cl)c3F)c[n+]2[O-])c1` (racemic), the half-life is 0.183 h in [1] and 0.3 h in [2].

`COCC[C@H](c1ccc(-c2c(-n3cnnn3)ccc(Cl)c2F)c[n+]1[O-])n1cc(-c2cnnn2C)cn1`: the half-life stood at 2.83 h in series [1] and 0.833 h in series [2].

One may read the bioavailability as dose-corrected exposure relative to a reference, in per cent. Take `COC(=O)Nc1ccc(-c2cnn(C(CC3CC3)c3ccc(-c4cc(Cl)ccc4-n4cnnn4)c[n+]3[O-])c2)cc1` (racemic): the bioavailability in series [3] was 37.3%.

Take `Nc1ccc(-c2cnn(C(CC3CC3)c3ccc(-c4c(-n5cnnn5)ccc(Cl)c4F)c[n+]3[O-])c2)c(F)n1` (racemic): the half-life in [1] and in [2] was more than 3 h throughout.

As for `COCC[C@H](c1ccc(-c2c(-n3cc(Cl)nn3)ccc(Cl)c2F)c[n+]1[O-])n1cc(-c2cnnn2C)cn1`, the half-life amounted to 0.9 h in [1] and 0.783 h in series [2].

For `Cc1nc(N)ccc1-c1cnn(C(CC2CC2)c2ccc(-c3c(-n4cnnn4)ccc(Cl)c3F)c[n+]2[O-])c1` (racemic), the half-life in series [1] turned out to be 1.67 h; in [2], 1.8 h.

With `Cn1nncc1-c1cnn([C@H](Cc2ccc(F)cc2)c2ccc(-c3c(-n4cnnn4)ccc(Cl)c3F)c[n+]2[O-])c1`, the half-life in series [1] was more than 3.08 h; in series [2], 0.8 h.

As for `Cn1nncc1-c1cnn([C@H](Cc2ccn(C(F)F)n2)c2ccc(-c3c(-n4cc(C(F)(F)F)nn4)ccc(Cl)c3F)c[n+]2[O-])c1`, the half-life is more than 3.08 h in [1] and 2.33 h in series [2].

For `Cn1nncc1-c1cnn([C@H](CCOC(F)F)c2ccc(-c3c(-n4cc(C(F)(F)F)nn4)ccc(Cl)c3F)c[n+]2[O-])c1`, the figures for the half-life in [1] and in series [2] were more than 3.08 h and 2.42 h, respectively.

What is called AUC is concentration integrated over time. As a reminder, the thermodynamic solubility is the concentration in solution at equilibrium with solid. In the case of `Cn1nncc1-c1cnn([C@H](CCOC(F)F)c2ccc(-c3c(-n4cc(Cl)nn4)ccc(Cl)c3F)c[n+]2[O-])c1`, the bioavailability stood at 36.4% in [4], 80.5% in [11] and 43% in series [12]. In addition, the half-life is more than 3.08 h in [1]; more than 3.08 h in [2]; 1.4 h in [5]; 2 h in [6]; 1 h in series [7]. In addition, the Vdss in series [8] was 0.8 L/kg; in [9] it was 1.5 L/kg; in series [10], 1.5 L/kg. The AUC was found to be 5.5 µM·h in [13]; 3.7 µM·h in [14]; 1.1 µM·h in series [15]; 10 µM·h in series [16]; 14.7 µM·h in [17]; 2.5 µM·h in series [18]. Further, the figures for the LBF in series [19], in series [20] and in series [21] were 12%, 25% and 58%, respectively. Besides, the figures for the thermodynamic solubility in series [22] and in [23] were 81 µM (≈ 47 µg/mL) and 172 µM (≈ 99.6 µg/mL), respectively. Moreover, the values for the concentration at 1 h in [24] and in series [25] were 1.08 µM and 7.5 µM, respectively.

`COC(=O)Nc1ccc(-c2cnn([C@H](CC3CC3)c3ccc(-c4c(-n5cnnn5)ccc(Cl)c4F)c[n+]3[O-])c2)cc1` came in with a bioavailability in series [26] of 59.6%.

`[O-][n+]1cc(-c2c(-n3cnnn3)ccc(Cl)c2F)ccc1C(CC1CC1)n1cc(-c2c(F)cncc2Cl)cn1` (racemic): the half-life in series [1] and in series [2] was 0.0333 h each time.

With `Cn1nncc1-c1cnn([C@H](CCOC(F)F)c2ccc(-c3c(-n4cnnn4)ccc(Cl)c3F)c[n+]2[O-])c1`, the half-life in series [1] and in [2] was more than 3.08 h in each case.

For the molecule `Cn1nccc1-c1cnn(C(CC2CC2)c2ccc(-c3c(-n4cnnn4)ccc(Cl)c3F)c[n+]2[O-])c1` (racemic), the figures for the half-life in series [1] and in series [2] were 0.267 h and 0.45 h, respectively.

Regarding `Cn1nncc1-c1cnn([C@H](Cc2ccc(F)cc2)c2ccc(-c3c(-n4cc(Cl)nn4)ccc(Cl)c3F)c[n+]2[O-])c1`, the half-life in series [1] turned out to be 1.47 h; in series [2], 1.28 h.

Take `Cn1cncc1-c1cnn([C@H](CC2CC2)c2ccc(-c3c(-n4cnnn4)ccc(Cl)c3F)c[n+]2[O-])c1`: the half-life in [1] amounted to 0.6 h; in series [2] it was 1.07 h.

With `Cn1nncc1-c1cnn([C@H](Cn2cc(F)cn2)c2ccc(-c3c(-n4cc(Cl)nn4)ccc(Cl)c3F)c[n+]2[O-])c1`, the half-life in series [1] was more than 3.08 h; in series [2], 1.47 h.
